The record followed here is US8883135B2, “Crystalline form of a pyridyl-piperazinyl hepatitis C virus inhibitor” (Theravance Biopharma R&D IP, LLC, priority 2012, dated 2014).

In data set [1] the test system is HCV replicon resistant mutants: genotype 1b L31V and Y93H; genotype 1a Q30R and L31V. Kind of data set: Replicon Assays Against Resistant Mutants (stably transfected Huh7 cells). In kind it is cell-based. Particulars: Hepatitis C virus, Huh-7, read-out: pEC50 (converted). How it is done:
To create replicon cells with resistant mutations of interest, the mutation was first introduced into the parental plasmid by site-directed mutagenesis. Mutations in genotype 1b included L31V and Y93H. Mutations in genotype 1a included Q30R and L31V. The replicon plasmid was then linearized and in vitro transcribed to RNA. The RNA was used to stably transfect Huh7 cells by electroporation, and new cell lines were selected with 500 μg/mL G418. Potencies of test compounds against these mutant cell lines were determined as previously described above for the HCV Genotype 1b and 1a replicon assays.

Data set [2] concerns HCV genotype 1b replicon cell line (Huh7 cell background). Kind of data set: HCV Genotype 1b Replicon Assay. In kind it is cell-based. Particulars: Hepatitis C virus, Huh-7, luciferase activity readout, 48 hours incubation. An excerpt:
The HCV genotype 1b replicon cell line was obtained from Apath LLC (Brooklyn, N.Y.) (APC144; Huh7 cell background). This subgenomic replicon contains the N-terminus of the HCV core protein fused to the neomycin-resistance selectable marker. The EMCV IRES lies downstream and drives expression of humanized Renilla luciferase fused to the non-structural proteins NS3-NS5B. This cell line was used to determine compound potency using the luciferase activity readout as a measurement of compound inhibition of replicon levels.
Cells were grown at 37° C. in a 5% CO2 humidified incubator in DMEM (Invitrogen) with 10% FBS (HyClone), 1×NEAA (Invitrogen), 1× Pen-Strep (Invitrogen), and 500 μg/mL G418 (Invitrogen). On day 1 of the assay, cells were plated at 10,000 cells/well in white 96-well tissue culture plates (Costar) in 200 μL media lacking G418. […] At the end of the incubation period, media and compound were removed from the plates and the luciferase activity was determined using Promega Renilla-Glo reagents.
To analyze the data, the luciferase activity was plotted vs. the compound concentration, and EC50 values were determined from a 4-parameter robust fit model with the GraphPad Prism software package (GraphPad Software, Inc., San Diego, Calif.). Results are expressed as the negative decadic logarithm of the EC50 value, pEC50. […]

Data set [3] has as its system HCV replicon mutants genotype 1a Y93H, M28T, and Q30E. In words: Replicon assays against resistant mutants (transient transfection, Huh-LUNET cells). The data set is classed as cell-based. Particulars: Hepatitis C virus, read-out: pEC50 (converted). How it is done: Potencies of test compounds against additional mutations of interest were determined using transient transfection assays. These mutants included genotype 1a Y93H, M28T, and Q30E. The mutation was first introduced into the parental plasmid by site-directed mutagenesis. The replicon plasmid was then linearized and in vitro transcribed to RNA. The RNA was used to transiently transfect Huh-LUNET cells (obtained from ReBLikon GmbH, Schriesheim, Germany) by electroporation, and the potencies of test compounds against the mutants were determined as previously described.
A general note: A replicon is a self-replicating genome or part of one, used to study replication in cells.

For data set [4], the system named is HCV genotype 1a replicon cell line (Huh7.5 cell background). Kind of data set: HCV Genotype 1a Replicon Assay. Particulars: Hepatitis C virus, NS3-specific protease activity in lysates, 48 or 72 hours incubation. The data set is classed as cell-based. How it is done:
The HCV genotype 1a replicon cell line was obtained from Apath LLC (APC89; Huh7.5 cell background). This subgenomic replicon contains the N-terminus of the HCV core protein fused to the neomycin-resistance selectable marker. The EMCV IRES lies downstream and drives expression of the non-structural proteins NS3-NS5B. Compound potencies were determined using the NS3-specific protease activity in lysates as a measurement of compound inhibition of replicon levels.
Cells were grown at 37° C. in a 5% CO2 humidified incubator in DMEM (Invitrogen) with 10% FBS (HyClone), 1×NEAA (Invitrogen), 1× Pen-Strep (Invitrogen), and 850 μg/mL G418 (Invitrogen). On day 1 of the assay, cells were plated at 15,000 cells/well in black 96-well tissue culture plates (Costar) in 200 μL media lacking G418. […]
To determine the NS3-specific protease activity in lysates, the cells were lysed at room temperature in 50 μL/well of 50 mM Hepes pH 7.5, 150 mM NaCl, 15% Glycerol, 0.15% Triton X-100, 10 mM DTT for 20 minutes with shaking. […] Protease activity was determined by measuring fluorescence (Excitation: 340 nm; Emission: 509 nm).
To analyze the data, the fluorescence was plotted vs. the compound concentration, and EC50 values were determined from a 4-parameter robust fit model using GraphPad Prism software.

A short description of data set [5]: Dynamic Moisture Sorption Assessment. Particulars: for deliquescence: exposed to up to about 90% relative humidity at room temperature; for change in solid form (powder diffraction pattern) after two sorption/desorption cycles: two DMS cycles, PXRD compared with the starting material. In kind it is physicochemical. The method, then:
Dynamic moisture sorption (DMS) measurements were performed for each crystalline form using a VTI atmospheric microbalance, SGA-100 system (VTI Corp., Hialeah, Fla. 33016). A weighed sample was used and the humidity was lowest possible value (close to 0% RH) at the start of the analysis. […] The DMS run was performed isothermally at 25° C.

The mark [6] stands for this setting: humidity range of 2% to 90% relative humidity at room temperature.

`CNC(=O)N1C[C@@H](C)N(c2ccc(C(=O)Nc3ccc(-c4ccc(-c5c[nH]c([C@@H]6CCCN6C(=O)[C@@H](NC(=O)OC)C(C)C)n5)cc4)c(OC(F)(F)F)c3)cn2)C[C@@H]1C` [Compound 1, ((S)-1-{(S)-2-[4-(4′-{[6-((2R,5S)-2,5-dimethyl-4-methylcarbamoyl-piperazin-1-yl)-pyridine-3-carbonyl]-amino}-2′-trifluoromethoxy-biphenyl-4-yl)-1H-imidazol-2-yl]-pyrrolidine-1-carbonyl}-2-methyl-propyl)-carbamic acid methyl ester]: the EC50 in data set [1] is ≤ 10 nM; in data set [2], ≤ 0.01 nM; in data set [3], ≤ 10 nM; in data set [4] it was ≤ 0.1 nM.
As for `CNC(=O)N1C[C@@H](C)N(c2ccc(C(=O)Nc3ccc(-c4ccc(-c5c[nH]c([C@@H]6CCCN6C(=O)[C@@H](NC(=O)OC)C(C)C)n5)cc4)c(OC(F)(F)F)c3)cn2)C[C@@H]1C` [crystalline compound 1, Crystalline ((S)-1-{(S)-2-[4-(4′-{[6-((2R,5S)-2,5-Dimethyl-4-methylcarbamoyl-piperazin-1-yl)-pyridine-3-carbonyl]-amino}-2′-trifluoromethoxy-biphenyl-4-yl)-1H-imidazol-2-yl]-pyrrolidine-1-carbonyl}-2-methyl-propyl)-carbamic acid methyl ester], in data set [5], the deliquescence entry is “neither crystalline compound 1 nor the anhydrous and hydrate forms of the crystalline dihydrochloride salt of compound 1 is deliquescent”; the “change in solid form (powder diffraction pattern) after two sorption/desorption cycles” value is reported as “no change in form”. Also, in data set [5] (setting [6]), the “weight gain (dynamic moisture sorption)” value was “about 3%”. Further, the “weight gain (dynamic moisture sorption)” value in data set [5] (humidity range of 2% to 90% relative humidity at room temperature, listed as Crystalline compound 1) is reported as ≤ 3%.
Turning to `CNC(=O)N1C[C@@H](C)N(c2ccc(C(=O)Nc3ccc(-c4ccc(-c5c[nH]c([C@@H]6CCCN6C(=O)[C@@H](NC(=O)OC)C(C)C)n5)cc4)c(OC(F)(F)F)c3)cn2)C[C@@H]1C.Cl.Cl.O` [monohydrate form, Crystalline ((S)-1-{(S)-2-[4-(4′-{[6-((2R,5S)-2,5-Dimethyl-4-methylcarbamoyl-piperazin-1-yl)-pyridine-3-carbonyl]-amino}-2′-trifluoromethoxy-biphenyl-4-yl)-1H-imidazol-2-yl]-pyrrolidine-1-carbonyl}-2-methyl-propyl)-carbamic acid methyl ester dihydrochloride Monohydrate Form], the “weight gain (dynamic moisture sorption)” value in data set [5] (at 90% relative humidity during the initial adsorption segment) is on record as “about 2%”. Moreover, in data set [5], the deliquescence result is “neither crystalline compound 1 nor the anhydrous and hydrate forms of the crystalline dihydrochloride salt of compound 1 is deliquescent”; the “change in solid form (powder diffraction pattern) after two sorption/desorption cycles” value is “no change in form”.
Take “Crystalline ((S)-1-{(S)-2-[4-(4′-{[6-((2R,5S)-2,5-Dimethyl-4-methylcarbamoyl-piperazin-1-yl)-pyridine-3-carbonyl]-amino}-2′-trifluoromethoxy-biphenyl-4-yl)-1H-imidazol-2-yl]-pyrrolidine-1-carbonyl}-2-methyl-propyl)-carbamic acid methyl ester dihydrochloride Anhydrous Form [anhydrous dihydrochloride salt]”: in data set [5], the deliquescence result was “neither crystalline compound 1 nor the anhydrous and hydrate forms of the crystalline dihydrochloride salt of compound 1 is deliquescent”; the “change in solid form (powder diffraction pattern) after two sorption/desorption cycles” value is “no change in form”. Moreover, the “weight gain (dynamic moisture sorption)” value in data set [5] (setting [6]) is “about 0.8%”.
